Test results published in patent US8354414B2, “Substituted bicyclic pyrimidines” (Cephalon, Inc, priority 2006, dated 2013).
Where two headings read alike, the source gives them in different places.

Key:
CDK5/GST-p25 = target: T1, CDK5/GST-p25 (Homo sapiens, UniProt Q00535); experiment: Inhibition of CDK5/GST-p25 kinase activity (ELISA with time-resolved fluorescence readout); type: biochemical
T1 construct: The final construct, encoding for full-length human CDK5; made in house; host or cells: Sf21 insect cells (baculovirus co-infection)
Procedure, shortened: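 The substrate, GST-Rb(773-928), was immobilised on plates and phosphorylated for 20 min at 37 °C by 2 ng/ml CDK5/GST-p25 in HEPES pH 7.2 with 10 µM ATP and 10 mM MgCl2. Both proteins were human and co-expressed in insect cells. Ser-780 phosphorylation was read by europium time-resolved fluorescence and converted to IC50.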

His6-GSK-3β = target: T2, His6-GSK-3β (Homo sapiens, UniProt P49841); experiment: Inhibition of His6-GSK-3β kinase activity (ELISA-based format, time-resolved fluorescence readout); type: biochemical; conditions: read-out: GSK3β IC50
T2 construct: made in house; host or cells: Sf21 insect cells (baculovirus)
Procedure, shortened: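 Plate-bound recombinant GST-Rb substrate was phosphorylated for 30 min at 37° C by baculovirus-expressed His6-GSK-3β (200 ng/ml) at 20 μM ATP, 10 mM MgCl2, 2.5% DMSO. Europium time-resolved fluorescence of anti-phospho-Ser780 Rb signal gave inhibition, fitted to IC50.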

T2 sequence (P49841 2-419): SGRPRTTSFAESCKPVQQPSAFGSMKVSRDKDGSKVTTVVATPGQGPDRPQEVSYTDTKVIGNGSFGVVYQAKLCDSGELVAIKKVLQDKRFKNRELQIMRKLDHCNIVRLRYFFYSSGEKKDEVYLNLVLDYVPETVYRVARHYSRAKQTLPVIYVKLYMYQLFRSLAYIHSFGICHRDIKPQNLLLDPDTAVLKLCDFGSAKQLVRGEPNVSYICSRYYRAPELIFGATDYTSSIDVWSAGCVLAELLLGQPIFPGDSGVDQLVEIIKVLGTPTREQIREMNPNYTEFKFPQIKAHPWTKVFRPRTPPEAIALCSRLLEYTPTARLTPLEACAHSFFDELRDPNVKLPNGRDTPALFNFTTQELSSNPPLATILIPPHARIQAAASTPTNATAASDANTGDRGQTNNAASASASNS
T1 sequence (Q00535 whole entry): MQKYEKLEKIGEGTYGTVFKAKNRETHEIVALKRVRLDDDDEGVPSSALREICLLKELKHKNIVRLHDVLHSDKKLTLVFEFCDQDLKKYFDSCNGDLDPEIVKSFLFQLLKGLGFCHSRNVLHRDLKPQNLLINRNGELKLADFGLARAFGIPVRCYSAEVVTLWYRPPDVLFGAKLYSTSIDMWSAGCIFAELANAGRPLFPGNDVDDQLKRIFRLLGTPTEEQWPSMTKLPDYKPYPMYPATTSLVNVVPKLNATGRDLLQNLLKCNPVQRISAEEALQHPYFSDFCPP
T1 sequence (Q15078 108-307 partner limits assumed): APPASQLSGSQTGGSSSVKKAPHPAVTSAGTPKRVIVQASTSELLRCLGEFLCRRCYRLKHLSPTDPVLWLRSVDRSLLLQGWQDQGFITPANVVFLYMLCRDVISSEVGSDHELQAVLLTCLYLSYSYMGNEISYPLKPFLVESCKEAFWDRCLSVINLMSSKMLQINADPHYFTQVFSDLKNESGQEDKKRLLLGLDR

In the case of CNc1nc(C2C(=O)Nc3ccc(C(F)(F)F)cc32)c2cn(C3CCCC3)nc2n1 (stereo not drawn) [Example 159, 3(-2-cyclopentyl-6-methylamino-2H-pyrazolo[3,4-d]pyrimidin-4-yl)-5-trifluoromethyl-1,3-dihydro-indol-2-one], the IC50 (CDK5/GST-p25; class symbols) is reported as > 10000 nM, the melting point is reported as > 300 °C and the IC50 (His6-GSK-3β; class symbols) is reported as > 10000 nM.

With CNCCNc1nc(C2C(=O)Nc3ccc(Br)cc32)c2cn(C3CCCC3)nc2n1.Cl (stereo not drawn) [Example 378, 5-Bromo-3-[2-cyclopentyl-6-(2-methylamino-ethylamino)-2H-pyrazolo [3,4-d]pyrimidin-4-yl]-1,3-dihydro-indol-2-one hydrochloride salt] the IC50 (CDK5/GST-p25; numeric bounds) was > 3000 nM, the melting point was 201 to 204 °C and the IC50 (His6-GSK-3β; class symbols) was 300 to 3000 nM.

For Cn1ncc2c(C3C(=O)Nc4ccc(C#N)cc43)ncnc21 (stereo not drawn) [Example 108, 3-(1-methyl-1H-pyrazolo[3,4-d]pyrimidin-4-yl)-2-oxo-2,3-dihydro-1H-indole-5-carbonitrile], the IC50 (CDK5/GST-p25; class symbols) was < 300 nM, the melting point was > 300 °C (dec.) and the IC50 (His6-GSK-3β; class symbols) was > 10000 nM.

For CCCn1cc2c(C3C(=O)Nc4ccc(Br)cc43)nc(NCCc3ccccn3)nc2n1 (stereo not drawn) [Example 191, 5-Bromo-3-[2-propyl-6-(2-pyridin-2-yl-ethylamino)-2H-pyrazolo [3,4-d]pyrimidin-4-yl]-1,3-dihydro-indol-2-one], the IC50 (CDK5/GST-p25; class symbols) was < 300 nM, the melting point was 283 to 291 °C and the IC50 (His6-GSK-3β; class symbols) was < 300 nM.

In the case of [N-]=[N+]=NCCCn1cc2c(C3C(=O)Nc4ccc(Br)cc43)ncnc2n1 (stereo not drawn) [Example 89, 3-[2-(3-azido-propyl)-2H-pyrazolo[3,4-d]pyrimidin-4-yl]-5-bromo-1,3-dihydro-indol-2-one], the IC50 (CDK5/GST-p25; class symbols) is reported as < 300 nM, the melting point is reported as 252 to 256 °C and the IC50 (His6-GSK-3β; class symbols) is reported as < 300 nM.

With CCCn1cc2c(C3C(=O)Nc4ccc(Br)cc43)nc(NC[C@@H](C)O)nc2n1 (stereo partly drawn) [Example 195, 5-Bromo-3-[6-((R)-2-hydroxy-propylamino)-2-propyl-2H-pyrazolo [3,4-d]pyrimidin-4-yl]-1,3-dihydro-indol-2-one] the IC50 (CDK5/GST-p25; class symbols) was < 300 nM, the melting point was 310 °C (dec.) and the IC50 (His6-GSK-3β; class symbols) was < 300 nM.

In the case of COCCNc1nc(C2C(=O)Nc3ccc(Br)cc32)c2cn(CCOC)nc2n1 (stereo not drawn) [Example 235, 5-Bromo-3-[2-(2-methoxy-ethyl)-6-(2-methoxy-ethylamino)-2H-pyrazolo [3,4-d]pyrimidin-4-yl]-1,3-dihydro-indol-2-one], the IC50 (CDK5/GST-p25; class symbols) is reported as < 300 nM, the melting point is reported as > 300 °C and the IC50 (His6-GSK-3β; class symbols) is reported as < 300 nM.

With CCCn1ncc2c(C3C(=O)Nc4ccc(C#N)cc43)ncnc21 (stereo not drawn) [Example 93, 3-(1-propyl-1H-pyrazolo[3,4-d]pyrimidin-4-yl)-2-oxo-2,3-dihydro-1H-indole-5-carbonitrile] the IC50 (CDK5/GST-p25; class symbols) was > 10000 nM, the melting point was > 300 °C and the IC50 (His6-GSK-3β; class symbols) was > 10000 nM.

In the case of CNCCCNc1nc(C2C(=O)Nc3ccc(Br)cc32)c2cn(C3CCCC3)nc2n1.Cl (stereo not drawn) [Example 379, 5-Bromo-3-[2-cyclopentyl-6-(3-methylamino-propylamino)-2H-pyrazolo[3,4-d]pyrimidin-4-yl]-1,3-dihydro-indol-2-one hydrochloride salt], the IC50 (CDK5/GST-p25; numeric bounds) is reported as > 3000 nM, the melting point is reported as 208 to 211 °C and the IC50 (His6-GSK-3β; class symbols) is reported as < 300 nM.

With COCCn1cc2c(C3C(=O)Nc4ccc(Br)cc43)nc(Cl)nc2n1 (stereo not drawn) [Example 225, 5-Bromo-3-[6-chloro-2-(2-methoxy-ethyl)-2H-pyrazolo [3,4-d]pyrimidin-4-yl]-1,3-dihydro-indol-2-one] the IC50 (CDK5/GST-p25; class symbols) was > 10000 nM, the melting point was > 300 °C and the IC50 (His6-GSK-3β; class symbols) was < 300 nM.

In the case of CN(C)CCCNc1nc(C2C(=O)Nc3ccc(Br)cc32)c2cn(C)nc2n1 (stereo not drawn) [Example 307, 5-Bromo-3-[6-(3-dimethylamino-propylamino)-2-methyl-2H-pyrazolo[3,4-d]pyrimidin-4-yl]-1,3-dihydro-indol-2-one], the IC50 (CDK5/GST-p25; class symbols) is reported as 300 to 3000 nM, the melting point is reported as 310 to 312 °C (dec.) and the IC50 (His6-GSK-3β; class symbols) is reported as 300 to 3000 nM.

For CN(C)CCCNc1nc(C2C(=O)Nc3ccc(Cl)cc32)c2cn(C3CCCC3)nc2n1 (stereo not drawn) [Example 377, 5-Chloro-3-[2-cyclopentyl-6-(3-dimethylamino-propylamino)-2H-pyrazolo [3,4-d]pyrimidin-4-yl]-1,3-dihydro-indol-2-one], the IC50 (CDK5/GST-p25; class symbols) was > 10000 nM, the melting point was 176 to 179 °C and the IC50 (His6-GSK-3β; class symbols) was 300 to 3000 nM.

For O=C1Nc2ccccc2C1c1nc(Cl)nc2nn(C3CCCC3)cc12 (stereo not drawn) [Example 152, 3-(6-Chloro-2-cyclopentyl-2H-pyrazolo[3,4-d]pyrimidin-4-yl)-1,3-dihydro-indol-2-one], the IC50 (CDK5/GST-p25; class symbols) was > 10000 nM, the melting point was 270 to 273 °C and the IC50 (His6-GSK-3β; class symbols) was > 10000 nM.

In the case of O=C1Nc2ccccc2C1c1ncnc2c1cnn2C1CCCC1 (stereo not drawn) [Example 62, 3-(1Cyclopentyl-1H-pyrazolo[3,4-d]pyrimidin-4-yl)-1,3-dihydro-indol-2-one], the IC50 (CDK5/GST-p25; class symbols) is reported as > 10000 nM, the melting point is reported as 228 to 231 °C and the IC50 (His6-GSK-3β; numeric bounds) is reported as > 3000 nM.

In the case of CN(C)CCNc1nc(C2C(=O)Nc3ccc(C(F)(F)F)cc32)c2cn(C3CCCC3)nc2n1 (stereo not drawn) [Example 251, 3-[2-Cyclopentyl-6-(2-dimethylamino-ethylamino)-2H-pyrazolo[3,4-d]pyrimidin-4-yl]-5-trifluoromethyl-1,3-dihydro-indol-2-one], the IC50 (CDK5/GST-p25; numeric bounds) is reported as > 3000 nM, the melting point is reported as 211 to 213 °C and the IC50 (His6-GSK-3β; class symbols) is reported as < 300 nM.

For N#Cc1cccc2c1NC(=O)C2c1ncnc2c1cnn2C1CCCC1 (stereo not drawn) [Example 64, 3-(1-Cyclopentyl-1H-pyrazolo [3,4-d]pyrimidin-4-yl)-2-oxo-2,3-dihydro-1H-indole-7-carbonitrile], the IC50 (CDK5/GST-p25; class symbols) was > 10000 nM, the melting point was 327 to 332 °C and the IC50 (His6-GSK-3β; class symbols) was > 10000 nM.

With CCCCCn1cc2c(C3C(=O)Nc4ccc(C(F)(F)F)cc43)nc(NCCCN3CCOCC3)nc2n1 (stereo not drawn) [Example 290, 3-[6-(3-Morpholin-4-yl-propylamino)-2-pentyl-2H-pyrazolo[3,4-d]pyrimidin-4-yl]-5-trifluoromethyl-1,3-dihydro-indol-2-one] the inhibition at 10 µM (CDK5/GST-p25) was 73%, the melting point was 230 °C (dec.) and the IC50 (His6-GSK-3β; class symbols) was < 300 nM.

With C[C@H](O)CNc1nc(C2C(=O)Nc3ccc(Cl)cc32)c2cn(C3CCCC3)nc2n1 (stereo partly drawn) [Example 374] the inhibition at 10 µM (CDK5/GST-p25) was 56%, the melting point was > 300 °C and the IC50 (His6-GSK-3β; class symbols) was < 300 nM.

For COCCNc1nc(C2C(=O)Nc3ccc(Br)cc32)c2cn(CC(C)C)nc2n1 (stereo not drawn) [Example 263, 5-Bromo-3-[2-isobutyl-6-(2-methoxy-ethylamino)-2H-pyrazolo[3,4-d]pyrimidin-4-yl]-1,3-dihydro-indol-2-one], the IC50 (CDK5/GST-p25; class symbols) was < 300 nM, the melting point was 294 to 296.8 °C and the IC50 (His6-GSK-3β; class symbols) was < 300 nM.

For CC(C)Nc1nc(C2C(=O)Nc3ccc(C#N)cc32)c2cn(C3CCCC3)nc2n1 (stereo not drawn) [Example 150, 3-(2-cyclopentyl-6-isopropylamino-2H-pyrazolo [3,4-d]pyrimidin-4-yl)-2-oxo-2,3-dihydro-1H-indole-5-carbonitrile], the inhibition at 10 µM (CDK5/GST-p25) was 76%, the melting point was > 300 °C and the IC50 (His6-GSK-3β; class symbols) was < 300 nM.

For C=CCNc1nc(C2C(=O)Nc3ccccc32)c2cn(C3CCCC3)nc2n1 (stereo not drawn) [Example 243, 3-(6-Allylamino-2-cyclopentyl-2H-pyrazolo[3,4-d]pyrimidin-4-yl)-1,3-dihydro-indol-2-one], the inhibition at 10 µM (CDK5/GST-p25) was 63%, the melting point was > 300 °C and the IC50 (His6-GSK-3β; numeric bounds) was > 1000 nM.

In the case of O=C1Nc2ccccc2C1c1nc(NCc2ccncc2)nc2nn(C3CCCC3)cc12 (stereo not drawn) [Example 241, 3-{2-Cyclopentyl-6-[(pyridin-4-ylmethyl)-amino]-2H-pyrazolo[3,4-d]pyrimidin-4-yl}-1,3-dihydro-indol-2-one], the IC50 (CDK5/GST-p25; class symbols) is reported as 300 to 3000 nM, the melting point is reported as 198 to 200 °C and the IC50 (His6-GSK-3β; class symbols) is reported as < 300 nM.

With CCCn1cc2c(C3C(=O)Nc4ccc(Br)cc43)nc(NCCCN3CCOCC3)nc2n1 (stereo not drawn) [Example 203, 5-Bromo-3-[6-(3-morpholin-4-yl-propylamino)-2-propyl-2H-pyrazolo [3,4-d]pyrimidin-4-yl]-1,3-dihydro-indol-2-one] the IC50 (CDK5/GST-p25; class symbols) was < 300 nM, the melting point was 298 to 303 °C and the IC50 (His6-GSK-3β; class symbols) was < 300 nM.

With O=C1Nc2c(cc([N+](=O)[O-])cc2[N+](=O)[O-])C1c1ncnc2nn(C3CCCC3)cc12 (stereo not drawn) [Example 43, 3-(2-Cyclopentyl-2H-pyrazolo[3,4-d]pyrimidin-4-yl)-5,7-dinitro-1,3-dihydro-indol-2-one] the IC50 (CDK5/GST-p25; class symbols) was 300 to 3000 nM, the melting point was > 300 °C and the IC50 (His6-GSK-3β; class symbols) was 300 to 3000 nM.

With O=C1Nc2ccc([N+](=O)[O-])cc2C1c1ncnc2c1cnn2C1CCCC1 (stereo not drawn) [Example 57, 3-(1-Cyclopentyl-1H-pyrazolo[3,4-d]pyrimidin-4-yl)-5-nitro-1,3-dihydro-indol-2-one] the IC50 (CDK5/GST-p25; class symbols) was > 10000 nM, the melting point was > 300 °C (dec.) and the IC50 (His6-GSK-3β; class symbols) was 300 to 3000 nM.

With Cn1ncc2c(C3C(=O)Nc4ccc(Cl)cc43)ncnc21 (stereo not drawn) [Example 86, 5-Chloro-3-(1-methyl-1H-pyrazolo[3,4-d]pyrimidin-4-yl)-1,3-dihydro-indol-2-one] the IC50 (CDK5/GST-p25; class symbols) was < 300 nM, the melting point was > 320 °C and the IC50 (His6-GSK-3β; class symbols) was > 10000 nM.

For CCCCCn1cc2c(C3C(=O)Nc4ccc(C#N)cc43)nc(Cl)nc2n1 (stereo not drawn) [Example 291, 3-(6-Chloro-2-pentyl-2H-pyrazolo [3,4-d]pyrimidin-4-yl)-2-oxo-2,3-dihydro-1H-indole-5-carbonitrile], the IC50 (CDK5/GST-p25; numeric bounds) was > 3000 nM, the melting point was 254 °C (dec.) and the IC50 (His6-GSK-3β; class symbols) was 300 to 3000 nM.

For CCCn1cc2c(C3C(=O)Nc4ccc(Br)cc43)nc(NCCCN)nc2n1 (stereo not drawn) [Example 199, 3-[6-(3-Amino-propylamino)-2-propyl-2H-pyrazolo [3,4-d]pyrimidin-4-yl]-5-bromo-1,3-dihydro-indol-2-one], the IC50 (CDK5/GST-p25; class symbols) was < 300 nM, the melting point was > 300 °C and the IC50 (His6-GSK-3β; class symbols) was < 300 nM.
